pIC50: −log10 of the molar value.
Tested on: 653999-131-R-J2-PDC complex spheroids, growth inhibition
Assay: Anticancer human tumor 653999-131-R-J2-PDC patient-derived lung adenocarcinoma cell line growth inhibition [RAS]
Conditions: for pIC50: curve of first compound; for viability, T/C: stronger effect = lower value
Outline: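 Tumour cells grown as complex spheroids with HUVEC endothelial cells and mesenchymal stem cells, treated with RAS pathway inhibitor combinations. Each agent spans half-log steps from near clinical Cmax, or 10 microM where Cmax is unknown.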

[1] = second compound 0.000949 µM, first compound 0.0316 µM
[2] = second compound 0.000949 µM, first compound 0.1 µM
[3] = second compound 0.000949 µM, first compound 0.316 µM
[4] = second compound 0.000949 µM, first compound 1 µM
[5] = second compound 0.000949 µM, first compound 3.16 µM
[6] = second compound 0.000949 µM, first compound 10 µM
[7] = second compound 0.003 µM, first compound 0.0316 µM
[8] = second compound 0.003 µM, first compound 0.1 µM
[9] = second compound 0.003 µM, first compound 0.316 µM
[10] = second compound 0.003 µM, first compound 1 µM
[11] = second compound 0.003 µM, first compound 3.16 µM
[12] = second compound 0.003 µM, first compound 10 µM
[13] = second compound 0.00949 µM, first compound 0.0316 µM
[14] = second compound 0.00949 µM, first compound 0.1 µM
[15] = second compound 0.00949 µM, first compound 0.316 µM
[16] = second compound 0.00949 µM, first compound 1 µM
[17] = second compound 0.00949 µM, first compound 3.16 µM
[18] = second compound 0.00949 µM, first compound 10 µM
[19] = second compound 0.03 µM, first compound 0.0316 µM
[20] = second compound 0.03 µM, first compound 0.1 µM
[21] = second compound 0.03 µM, first compound 0.316 µM
[22] = second compound 0.03 µM, first compound 1 µM
[23] = second compound 0.03 µM, first compound 3.16 µM
[24] = second compound 0.03 µM, first compound 10 µM
[25] = second compound 0.0949 µM, first compound 0.0316 µM
[26] = second compound 0.0949 µM, first compound 0.1 µM
[27] = second compound 0.0949 µM, first compound 0.316 µM
[28] = second compound 0.0949 µM, first compound 1 µM
[29] = second compound 0.0949 µM, first compound 3.16 µM
[30] = second compound 0.0949 µM, first compound 10 µM
[31] = second compound 0.3 µM, first compound 0.0316 µM
[32] = second compound 0.3 µM, first compound 0.1 µM
[33] = second compound 0.3 µM, first compound 0.316 µM
[34] = second compound 0.3 µM, first compound 1 µM
[35] = second compound 0.3 µM, first compound 3.16 µM
[36] = second compound 0.3 µM, first compound 10 µM
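Note: spheroids exposed to the agents for seven days before the readout.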

With `CC(=O)OC12COC1CC(O)C1(C)C(=O)C(O)C3=C(C)C(OC(=O)C(O)C(NC(=O)OC(C)(C)C)c4ccccc4)CC(O)(C(OC(=O)c4ccccc4)C21)C3(C)C` (stereo unspecified) + CCn1c(-c2cccnc2C(C)OC)c2c3cc(ccc31)N1CCOC(CC(NC(=O)C(C(C)C)N(C)C(=O)C3(F)CCN(C(=O)C#CC(C)(C)N(C)C)CC3)C(=O)N3CCCC(N3)C(=O)OCC(C)(C)C2)C1 the pIC50 (second compound 0.000949 µM) was under 5.00, the pIC50 (second compound 0.003 µM) was under 5.00 and the pIC50 (second compound 0.00949 µM) was under 5.00. It also gave a pIC50 (second compound 0.03 µM) of under 5.00, a pIC50 (second compound 0.0949 µM) of under 5.00 and a pIC50 (second compound 0.3 µM) of over 7.50. For the same compound, the viability, T/C [1] was 52.5%, the viability, T/C [2] was 52.7% and the viability, T/C [3] was 57.8%. The viability, T/C [4] was 62.2%, the viability, T/C [5] was 62.3% and the viability, T/C [6] was 66.6%. It also gave a viability, T/C [7] of 59.5%, a viability, T/C [8] of 53.2% and a viability, T/C [9] of 53.8%. For the same compound, the viability, T/C [10] was 59.7%, the viability, T/C [11] was 70.7% and the viability, T/C [12] was 76.9%. It also gave a viability, T/C [13] of 60.5%, a viability, T/C [14] of 59.7% and a viability, T/C [15] of 53.1%. The viability, T/C [16] was 58.7%, the viability, T/C [17] was 66.3% and the viability, T/C [18] was 67.2%. It also gave a viability, T/C [19] of 57.6%, a viability, T/C [20] of 59.9% and a viability, T/C [21] of 56.1%. The viability, T/C [22] was 54.5%, the viability, T/C [23] was 68% and the viability, T/C [24] was 64.2%. The viability, T/C [25] was 53.6%, the viability, T/C [26] was 55% and the viability, T/C [27] was 52.3%. The viability, T/C [28] was 58.5%, the viability, T/C [29] was 61% and the viability, T/C [30] was 65.1%. The viability, T/C [31] was 45.6%, the viability, T/C [32] was 49.8% and the viability, T/C [33] was 41%. The viability, T/C [34] was 52.1%, the viability, T/C [35] was 53.7% and the viability, T/C [36] was 60.3%.
`NC1c2ccccc2OC12CCN(c1cnc3c(N4CCCc5ncccc54)n[nH]c3n1)CC2` (stereo unspecified) + CCn1c(-c2cccnc2C(C)OC)c2c3cc(ccc31)N1CCOC(CC(NC(=O)C(C(C)C)N(C)C(=O)C3(F)CCN(C(=O)C#CC(C)(C)N(C)C)CC3)C(=O)N3CCCC(N3)C(=O)OCC(C)(C)C2)C1 gave a pIC50 (second compound 0.000949 µM) of under 5.00, a pIC50 (second compound 0.003 µM) of under 5.00 and a pIC50 (second compound 0.00949 µM) of under 5.00. The pIC50 (second compound 0.03 µM) was under 5.00, the pIC50 (second compound 0.0949 µM) was under 5.00 and the pIC50 (second compound 0.3 µM) was under 5.00. The viability, T/C [1] was 74.6%, the viability, T/C [2] was 75.4% and the viability, T/C [3] was 82.6%. It also gave a viability, T/C [4] of 71.6%, a viability, T/C [5] of 71.9% and a viability, T/C [6] of 85.5%. The viability, T/C [7] was 83.4%, the viability, T/C [8] was 83.3% and the viability, T/C [9] was 75.5%. The viability, T/C [10] was 67%, the viability, T/C [11] was 75.8% and the viability, T/C [12] was 77.5%. It also gave a viability, T/C [13] of 70.3%, a viability, T/C [14] of 82.2% and a viability, T/C [15] of 67.6%. It also gave a viability, T/C [16] of 76.2%, a viability, T/C [17] of 72.3% and a viability, T/C [18] of 65.3%. For the same compound, the viability, T/C [19] was 68.9%, the viability, T/C [20] was 66.2% and the viability, T/C [21] was 64.1%. The viability, T/C [22] was 72%, the viability, T/C [23] was 76.2% and the viability, T/C [24] was 67.7%. For the same compound, the viability, T/C [25] was 78.6%, the viability, T/C [26] was 71.4% and the viability, T/C [27] was 73.5%. It also gave a viability, T/C [28] of 71.9%, a viability, T/C [29] of 72.1% and a viability, T/C [30] of 73.5%. The viability, T/C [31] was 83.8%, the viability, T/C [32] was 72.2% and the viability, T/C [33] was 87.3%. It also gave a viability, T/C [34] of 79.6%, a viability, T/C [35] of 70% and a viability, T/C [36] of 71.7%.
In the case of `Nc1ccn(C2OC(CO)C(O)C2(F)F)c(=O)n1` (stereo unspecified) + CCn1c(-c2cccnc2C(C)OC)c2c3cc(ccc31)N1CCOC(CC(NC(=O)C(C(C)C)N(C)C(=O)C3(F)CCN(C(=O)C#CC(C)(C)N(C)C)CC3)C(=O)N3CCCC(N3)C(=O)OCC(C)(C)C2)C1, the pIC50 (second compound 0.000949 µM) was 7.15, the pIC50 (second compound 0.003 µM) was 7.18 and the pIC50 (second compound 0.00949 µM) was 7.21. The pIC50 (second compound 0.03 µM) was 7.19, the pIC50 (second compound 0.0949 µM) was 7.37 and the pIC50 (second compound 0.3 µM) was 7.23. It also gave a viability, T/C (second compound 0.000949 µM, first compound 0.00316 µM) of 93.8%, a viability, T/C (second compound 0.000949 µM, first compound 0.01 µM) of 74.9% and a viability, T/C [1] of 59.8%. The viability, T/C [2] was 41.4%, the viability, T/C [3] was 49.4% and the viability, T/C [4] was 37.4%. The viability, T/C (second compound 0.003 µM, first compound 0.00316 µM) was 110%, the viability, T/C (second compound 0.003 µM, first compound 0.01 µM) was 74.8% and the viability, T/C [7] was 57.9%. The viability, T/C [8] was 44.7%, the viability, T/C [9] was 44% and the viability, T/C [10] was 36.1%. For the same compound, the viability, T/C (second compound 0.00949 µM, first compound 0.00316 µM) was 93.1%, the viability, T/C (second compound 0.00949 µM, first compound 0.01 µM) was 67.1% and the viability, T/C [13] was 59.7%. It also gave a viability, T/C [14] of 45.5%, a viability, T/C [15] of 36.9% and a viability, T/C [16] of 38.2%. It also gave a viability, T/C (second compound 0.03 µM, first compound 0.00316 µM) of 93.8%, a viability, T/C (second compound 0.03 µM, first compound 0.01 µM) of 66.9% and a viability, T/C [19] of 57.7%. The viability, T/C [20] was 50.3%, the viability, T/C [21] was 36% and the viability, T/C [22] was 31.8%. The viability, T/C (second compound 0.0949 µM, first compound 0.00316 µM) was 94.5%, the viability, T/C (second compound 0.0949 µM, first compound 0.01 µM) was 64.9% and the viability, T/C [25] was 53.8%. For the same compound, the viability, T/C [26] was 45.6%, the viability, T/C [27] was 37.2% and the viability, T/C [28] was 33.2%. It also gave a viability, T/C (second compound 0.3 µM, first compound 0.00316 µM) of 91.5%, a viability, T/C (second compound 0.3 µM, first compound 0.01 µM) of 78.3% and a viability, T/C [31] of 62.2%. The viability, T/C [32] was 40.1%, the viability, T/C [33] was 33.3% and the viability, T/C [34] was 33.5%.

From PubChem BioAssay AID2060886 (Molecular Pharmacology Branch, DTP, NCI, 2025)
